The subject of one experiment is Rat pancreatic islets. Kind of experiment: Insulin secretion level by hyperglycemia stimulation in primary pancreatic islets. Format: cell-based, Sprague Dawley rats. As to conditions: 5 μM ZA for 3 days, mean±SD of five experiments.
A further experiment has as its target T1, PTP-1B (Homo sapiens, UniProt P18031).
T1 sequence (P18031 1-435): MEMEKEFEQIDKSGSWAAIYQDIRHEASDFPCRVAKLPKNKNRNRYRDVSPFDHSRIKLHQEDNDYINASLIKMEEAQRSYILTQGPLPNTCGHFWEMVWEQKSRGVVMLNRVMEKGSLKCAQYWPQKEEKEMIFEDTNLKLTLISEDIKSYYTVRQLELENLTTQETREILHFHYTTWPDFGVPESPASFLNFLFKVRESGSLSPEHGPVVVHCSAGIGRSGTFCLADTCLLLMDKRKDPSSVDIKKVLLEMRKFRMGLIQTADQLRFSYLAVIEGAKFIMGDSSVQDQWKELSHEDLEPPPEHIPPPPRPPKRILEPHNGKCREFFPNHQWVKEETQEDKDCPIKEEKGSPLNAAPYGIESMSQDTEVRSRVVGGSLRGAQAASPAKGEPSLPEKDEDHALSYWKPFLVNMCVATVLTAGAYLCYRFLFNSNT
Kind of experiment: Inhibition of binding PTP-1B with IR (protein chip, anti-IR phosphorylation antibody). Format: biochemical. The following applies: mean±SD, n=6. The method, then: IR molecules stood for 1 hour at 30° C. to induce phosphorylation, and each 1 μl of IR molecules were fixed with protein chips(PeproTech) at 4° C. The protein chips were washed with washing buffer for 10 minutes, and blocked with blocking buffer(3% BSA in PBS, pH 7.4) at room temperature for 1 hour followed by washing with washing buffer. Each sample was as follow:
0. Blank control(C), 0.5 μl PEG (10%, polyethylene glycol)+0.5 μl PTP-1B buffer;
1. Negative control(N), 0.5 μl PEG (10%)+0.5 μl PTP-1B;
2. Positive control(P), 0.5 μl Na3VO4(sodium orthovanadate; 1 mM, pH 10)+0.5 μl PTP-1B;
3. Experimental group(ZA), 0.5 μl ZA (5 μM)+0.5 μl PTP-1B
The protein chips were washed for 10 minutes, and each was treated with 1 μl of anti-IR phosphorylation antibodies diluted by dilution buffer in 1/100 followed by incubating for 1 hour at 30° C. And then, it was washed with washing buffer for 10 minutes, and each was treated with […] of Cy5-fluorescent coupled rabbit anti-IgG antibodies diluted by dilution buffer in 1/100 followed by incubating for 1 hour at 30° C. They were washed for 10 minutes, scanned by microarray scanner system to analyze to GraphPad Prism 4 software.
The results are presented as the mean±SD(%). Statistical analysis was performed using Student's t-test, and P<0.05 was considered as a significance (n=6).

Protocol for Rat pancreatic islets: Rat pancreatic islets were isolated from Sprague Dawley rats (200˜230 g) by digesting the pancreatic duct with collagenase P (1 mg/ml in PBS). After digestion, the islets were separated with Histopaque-1077 (Sigma, St. Louis, Mo.). The primary islets were cultured in RPMI 1640 medium containing 10% fetal bovine serum (FBS), penicillin (100 IU/ml) and streptomycin (100 g/ml). Equal number of primary islet clusters was transferred into micro-centrifuge tube with 1 ml of 10% RPMI 1640, and incubated under normal (5.5 mM glucose) and glucotoxic conditions with or without Zoledronic acid (5 μM) for 3 days. Exposure to glucotoxic conditions was followed by treating with 0.6 mM free fatty acid (FFA; palmitate/oleate, 2:1) and 25 mM glucose in RPMI 1640 with 10% FBS. FFA were complexed with 5% fatty acid-free BSA in PBS. Cultured islets were washed in Krebs-Ringer-bicarbonate (KRB) buffer (130 mM NaCl, 3.6 mM KCl, 1.5 mM CaCl2, 0.5 mM MgSO4, 0.5 mM KH2PO4. 2.0 mM NaHCO2 and 10 mM HEPES) and incubated in KRB buffer for 1 hour followed by further incubation in KRB buffer containing 5.5 mM glucose for 1 hour. Samples were centrifuged at 12,000 g for 1 min and the supernatant was collected for measurement. […] Insulin concentrations from two supernatants removed at two different conditions were measured with a RIA kit (Linco) The results are presented as the mean±SD of five independent experiments. […]

What is called inhibition is how much of the control response was suppressed. `O=P(O)(O)C(O)(Cn1ccnc1)P(=O)(O)O` [ZA, [1-hydroxy-2-(1H-imidazol-1-yl)ethane-1,1-diyl]bis(phosphonic acid)]: the insulin secretion level with Rat pancreatic islets (diabetes mellitus condition (25 mM glucose, glucotoxic), untreated reduced to 52±19% compared to normal condition) is reported as 72±34%; with Rat pancreatic islets (normal condition (5.5 mM glucose), untreated = 100±17%) it was 82±43%. In addition, the inhibition at 5 µM at PTP-1B (ZA 5 μM, read-out: inhibition effect of binding PTP-1B with IR) was 89 ± 21%.

Turning to `[Na+].[Na+].[Na+].[O]=[V]([O-])([O-])[O-]` [Na3VO4, sodium orthovanadate], the “inhibition effect of binding PTP-1B with IR” value at PTP-1B (positive control, Na3VO4 1 mM, pH 10) came to 87±4%.
